In article PMC10291552, “Computational Design, Synthesis, and Biological Evaluation of Diimidazole Analogues Endowed with Dual PCSK9/HMG-CoAR-Inhibiting Activity” (Journal of Medicinal Chemistry, 2023):
Entries after “also recorded” stand apart in the source; their conditions may differ.

Tests used:
[1] = target: T1, HMG-CoAR (catalytic domain) (Homo sapiens, UniProt P04035); test: HMG-CoAR activity assay (Sigma kit, NADPH oxidation at 340 nm); type: biochemical; details: 10–500 μM tested, 37 °C
T1 construct: and finally, HMG-CoAR (catalytic domain) (2 μL); purchased Sigma Aldrich
T1 sequence (P04035 426-888 limits assumed): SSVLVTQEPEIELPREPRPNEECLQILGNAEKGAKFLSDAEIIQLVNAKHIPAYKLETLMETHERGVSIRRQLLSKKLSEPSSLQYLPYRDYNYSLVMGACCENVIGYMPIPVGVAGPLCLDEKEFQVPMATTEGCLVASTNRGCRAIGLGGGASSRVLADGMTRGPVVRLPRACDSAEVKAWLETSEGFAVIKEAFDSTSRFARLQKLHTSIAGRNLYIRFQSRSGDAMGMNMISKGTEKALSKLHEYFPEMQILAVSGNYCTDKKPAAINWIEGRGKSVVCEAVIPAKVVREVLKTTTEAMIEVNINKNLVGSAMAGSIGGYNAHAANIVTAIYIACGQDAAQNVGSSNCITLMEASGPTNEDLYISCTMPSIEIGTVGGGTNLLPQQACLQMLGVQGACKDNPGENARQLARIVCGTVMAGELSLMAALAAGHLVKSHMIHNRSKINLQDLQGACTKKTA
Procedure: The experiments were carried out following the manufacturer’s instructions and optimized protocol.[43] The assay buffer, NADPH, substrate solution, and HMG-CoAR were provided in the HMG-CoAR Assay Kit (Sigma Aldrich SRL, Milan, Italy). The experiments were carried out following the manufacturer’s instructions at 37 °C. In particular, each reaction (200 μL) was prepared adding the reagents in the following order: 1× assay buffer, a 10–500 μM dose of sonicated Dim analogues or vehicle (C), NADPH (4 μL), the substrate solution (12 μL), and finally, HMG-CoAR (catalytic domain) (2 μL). Subsequently, the samples were mixed, and the absorbance at 340 nm was read by a microplate reader (Synergy H1, Winooski, VT, USA) at times of 0 and 10 min. The HMGCoAR-dependent oxidation of NADPH and the inhibition properties of the peptides were measured by absorbance reduction, which is directly proportional to enzyme activity.

[2] = tested on: HepG2 cells; test: HepG2 cell viability (MTT assay); type: cell-based, human; details: 48 h treatment, 0.1 nM to 10 μM, versus control cells
Procedure: Figure 3 HepG2 cell viability after the Dim3 (A) and Dim16 (B) treatments. Bar graphs indicating the results of the cell viability assay of HepG2 cells after Dim3 and Dim16 (0.1–10,000 nM) treatment for 48 h. The data points represent the mean ± SD of the three experiments in triplicate. ns: not significant.
The HepG2 cell line was bought from ATCC (HB-8065, ATCC from LGC Standards, Milan, Italy) and cultured in DMEM high glucose with stable L-glutamine supplemented with 10% FBS, 100 U/mL penicillin, and 100 μg/mL streptomycin (complete growth medium) with incubation at 37 °C under a 5% CO2 atmosphere.

[3] = tested on: LDLR localized on HepG2 surfaces; test: In-cell Western assay of LDLR on the HepG2 cell surface in the presence of PCSK9; type: cell-based, human; details: for LDLR levels on HepG2 surface: co-incubated with PCSK9 4 μg/mL, relative to untreated control cells; for fold more active than Rim13: LDLR restoration and LDL uptake in HepG2 cells, versus Rim13 ref 25
Procedure: For the experiments, a total of 3 × 10^4 HepG2 cells/well were seeded in 96-well plates. The following day, the cells were washed with PBS and then starved overnight (O/N) in DMEM without FBS and antibiotics. After starvation, the HepG2 cells were treated with 4.0 μg/mL PCSK9-WT and 4.0 μg/mL PCSK9 + diimidazole analogues and vehicle (H2O) for 2 h at 37 °C under a 5% CO2 atmosphere. Subsequently, they were fixed in 4% paraformaldehyde for 20 min at room temperature (RT). Cells were washed 5 times with 100 μL of PBS/well (each wash was for 5 min at RT), and the endogenous peroxide activity was quenched by adding 3% H2O2 for 20 min at RT. Non-specific sites were blocked with 100 μL/well of 5% bovine serum albumin (BSA, Sigma) in PBS for 1.5 h at RT. LDLR primary antibody solution (1:3000 in 5% BSA in PBS, 25 μL/well) was incubated O/N at +4 °C. Subsequently, the primary antibody solution was discarded, and each sample was washed 5 times with 100 μL/well of PBS (each wash was for 5 min at RT). Goat anti-rabbit Ig-HRP secondary antibody solution (Santa Cruz) (1:6000 in 5% BSA in PBS, 50 μL/well) was added and incubated 1 h at RT. The secondary antibody solution was washed 5 times with 100 μL/well of PBS (each wash for 5 min at RT). Freshly prepared TMB substrate (Pierce, 100 μL/well) was added, and the plate was incubated at RT until the desired color was developed. The reaction was stopped with 2 M H2SO4, and then the absorbance at 450 nm was measured using a microplate reader (Synergy H1, Winooski, VT, USA). After the reading, the cells were stained by adding 1× Janus Green stain, incubating for 5 min at RT. The dye was removed, and the sample was washed 5 times with water. Afterward, 100 μL of 0.5 M HCl for well was added, and the solution was incubated for 10 min. After 10 s of shaking, the OD at 595 nm was measured using the microplate reader (Synergy H1, Winooski, VT, USA).

[4] = tested on: HepG2 cells; test: Fluorescent LDL uptake by HepG2 cells in the presence of PCSK9; type: cell-based, human; details: co-incubated with PCSK9 4 μg/mL, relative to untreated control cells
Procedure: HepG2 cells (3 × 10^4/well) were seeded in 96-well plates and kept in complete growth medium for 2 days before treatment. On the third day, the cells were washed with PBS and then starved overnight (O/N) in DMEM without FBS and antibiotics. After starvation, they were treated with 4.0 μg/mL PCSK9, 4.0 μg/mL PCSK9 + diimidazole analogues, and vehicle (H2O) for 2 h with at 37 °C under a 5% CO2 atmosphere. At the end of the treatment, the culture medium was replaced with 50 μL/well LDL-DyLight 550 working solution (Cayman Chemical Company, Ann Arbor, MI, USA) prepared in DMEM without FBS and antibiotics. The cells were additionally incubated for 2 h at 37 °C, and then the culture medium was aspirated and replaced with PBS (100 μL/well). The degree of LDL uptake was measured using a Synergy H1 fluorescent plate reader (Winooski, VT, USA) (excitation and emission wavelengths of 540 and 570 nm, respectively). Fluorescent LDL uptake was finally assessed following optimized protocol.[14]

| Structure (SMILES) | HMG-CoAR activity IC50 [1] | HepG2 cell vitality [2] | LDLR levels on HepG2 surface ([3]; 1 nM) | LDLR levels on HepG2 surface ([3]; 10 nM) | fold more active than Rim13 [3] | LDL uptake ([4]; 1 nM) | LDL uptake ([4]; 10 nM) | IC50 [1] | fold more effective than Dim3 in restoring LDLR protein level on cell surface ([3]; cellular level, Figure 4) |
| --- | --- | --- | --- | --- | --- | --- | --- | --- | --- |
| C#Cc1ncc(-c2ncc(-c3ccc4ccccc4c3)n2CCCC(C)(C)C)n1CCCCCNC [Dim3, 5-(1-(4,4-Dimethylpentyl)-2′-ethynyl-5-(naphthalen-2-yl)-1H,3′H-[2,4′-biimidazol]-3′-yl)-N-methylpentan-1-amine] | no in vitro inhibitory activity; also recorded: not active | safe for HepG2 cells and safe | 77.87 ± 3.04% | 101.1 ± 15.06% | 100 | 94.12 ± 10.95% | 103.47 ± 7.34% | – | – |
| CNCCCCCn1c(-c2ncc(-c3ccc4ccccc4c3)n2CCCC(C)(C)C)cnc1I [Dim16, 5-(1-(4,4-Dimethylpentyl)-2′-iodo-5-(naphthalen-2-yl)-1H,3′H-[2,4′-biimidazol]-3′-yl)-N-methylpentan-1-amine] | – | safe for HepG2 cells and safe | 91.1 ± 2.22% | 87.17 ± 7.42% | 100 | 81.87 ± 7.45% | 136.47 ± 8.81% | 147 ± 75.1 µM | 10 |
